Measured values published in patent publication US9139532B2, “Pyrazolyl guanidine F1F0-atpase inhibitors and therapeutic uses thereof” (Lycera Corporation, priority 2010, dated 2015).
Read-outs that look alike come from different tables or passages of the source.

How the values were obtained:
F1F0-ATPase = molecular target: T1, F1F0-ATPase (Bos taurus, UniProt P13621); assay: Inhibition of F1F0-ATPase activity in synthesizing ATP; assay type: biochemical; details: inhibition of ATP synthesis by F1F0-ATPase; read-out: ATP Syn IC50
T1 construct: from tissue

Ramos cells = assay: Cytotoxicity in Ramos cells; assay type: cell-based; details: cytotoxicity in Ramos cells, read-out: Ramos Cell EC50

| SMILES | IC50 (F1F0-ATPase) [µM] | EC50 (Ramos cells; Homo sapiens) [µM] | EC50 (Ramos cells) [µM] |
| --- | --- | --- | --- |
| Cc1cc(N/C(=N\C(=O)c2ccc(C(F)(F)F)cc2)NC(C)(C)C)n[nH]1 [Compound A-125] | < 10 |  | < 10 |
| Cc1ccc(-c2cc(N/C(=N\C(=O)c3ccc(F)c(F)c3)Nc3cc(F)cc(Cl)c3)n[nH]2)cc1F [Compound A-126] | > 10 |  | > 10 |
| CC(C)NC(=NC(=O)c1cccc(C#N)c1)Nc1cc(-c2ccc(F)cc2)n[nH]1 [Compound A-127] | < 10 | > 10 |  |
| CC(C)(C)N/C(=N/C(=O)c1cccc(Cl)c1)Nc1cc(-c2cccc(Cl)c2)[nH]n1 [Compound A-129] | < 10 |  | < 10 |
| CC(C)(C)NC(=NC(=O)c1cccc(Cl)c1)Nc1cc(-c2ccc(Cl)cc2)n[nH]1 [Compound A-130] | < 10 | < 10 |  |
| CC(C)(C)NC(=NC(=O)c1ccc(Cl)cc1)Nc1cc(-c2cccc(Cl)c2)[nH]n1 [Compound A-131] | < 10 | < 10 |  |
| CC(C)(C)NC(=NC(=O)c1ccc(Cl)cc1)Nc1cc(-c2ccc(Cl)cc2)n[nH]1 [Compound A-132] | < 10 | < 10 |  |
| CC(C)(C)N/C(=N/C(=O)c1ccc(F)cc1)Nc1cc(-c2cccc(Cl)c2)[nH]n1 [Compound A-134] | < 10 |  | < 10 |
| CC(C)(C)NC(=NC(=O)c1ccc(F)cc1)Nc1cc(-c2ccc(Cl)cc2)n[nH]1 [Compound A-135] | < 10 | < 10 |  |
| CC(C)(C)N/C(=N/C(=O)c1ccc(F)c(F)c1)Nc1cc(-c2cccc(Cl)c2)[nH]n1 [Compound A-136] | < 10 |  | < 10 |
| CC(C)(C)N/C(=N/C(=O)c1ccc(F)c(F)c1)Nc1cc(-c2ccc(Cl)cc2)[nH]n1 [Compound A-137] | < 10 |  | < 10 |

More lines, main results first:

| IC50 (F1F0-ATPase) [µM] | SMILES | EC50 (Ramos cells; Homo sapiens) [µM] | EC50 (Ramos cells) [µM] |
| --- | --- | --- | --- |
| < 10 | C[C@@H](N/C(=N\C(=O)c1ccc(Cl)c(F)c1)Nc1cc(C(F)(F)F)n[nH]1)C1CCCCC1 [Compound A-117] | < 10 |  |
| < 10 | O=C(/N=C(\Nc1cc(C(F)(F)F)n[nH]1)NC1CCOCC1)c1ccc(Cl)c(F)c1 [Compound A-118] | < 10 |  |
| < 10 | O=C(/N=C(\Nc1cc(C(F)(F)F)n[nH]1)NC1CCCOC1)c1ccc(Cl)c(F)c1 (centres unmarked) [Compound A-119] | < 10 |  |
| < 10 | COCC(C)N/C(=N/C(=O)c1ccc(Cl)c(F)c1)Nc1cc(C(F)(F)F)n[nH]1 (centres unmarked) [Compound A-120] | < 10 |  |
| < 10 | O=C(/N=C(/Nc1cc(C(F)(F)F)n[nH]1)NC1CCS(=O)(=O)C1)c1ccc(Cl)c(F)c1 (centres unmarked) [Compound A-121] | > 10 |  |
| < 10 | O=C(/N=C(\Nc1cc(C(F)(F)F)[nH]n1)NC1CCCC1)c1ccc(Cl)cc1 [Compound A-122] | < 10 |  |
| < 10 | CCC(C)(C)N/C(=N/C(=O)c1ccc(Cl)cc1)Nc1cc(C(F)(F)F)[nH]n1 [Compound A-123] | < 10 |  |
| < 10 | O=C(/N=C(\Nc1cc(C(F)(F)F)[nH]n1)NC1CCOCC1)c1ccc(Cl)cc1 [Compound A-124] | > 10 |  |
| < 10 | CC(C)(C)N/C(=N/C(=O)c1cccc(C(F)(F)F)c1)Nc1cc(-c2cccc(Cl)c2)[nH]n1 [Compound A-128] |  | < 10 |
| < 10 | CC(C)(C)NC(=NC(=O)c1cccc(F)c1)Nc1cc(-c2ccc(Cl)cc2)n[nH]1 [Compound A-133] | < 10 |  |
| < 10 | CC(C)(C)N/C(=N/C(=O)c1ccc(C(F)(F)F)cc1)Nc1cc(-c2ccc(Cl)cc2)[nH]n1 [Compound A-138] |  | < 10 |
| > 10 | O=C(N=C(Nc1cc(-c2ccc(F)cc2)n[nH]1)NC1CCOCC1)c1ccc(Cl)c(F)c1 [Compound A-139] | > 10 |  |
| > 10 | O=C(/N=C(\Nc1cc(-c2ccccc2)[nH]n1)NC1CCOCC1)c1ccc(Cl)c(F)c1 [Compound A-140] |  | > 10 |
| < 10 | CC(C)(C)N/C(=N/C(=O)c1ccc(Cl)c(F)c1)Nc1cc(-c2ccccc2)[nH]n1 [Compound A-141] |  | < 10 |
